# Experimental data from PubChem BioAssay AID2060624 (Molecular Pharmacology Branch, DTP, NCI, 2025).
# pIC50: −log10 of the molar value.
# System: 217524-143-R1-J4-PDC spheroids with HUVEC/MSC, viability
# Assay: Anticancer human tumor 217524-143-R1-J4-PDC patient-derived pancreatic carcinoma cell line growth inhibition [CLK]
# Conditions: for pIC50: curve of first compound; for viability, T/C: stronger effect = lower value
# In short: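 Patient-derived tumor cells grown as complex spheroids with HUVEC endothelial cells and mesenchymal stem cells, treated with drug combinations. Concentrations descend in half-log steps from near clinical Cmax, or from 10 microM if Cmax unknown.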
# [1] = second compound 0.0316 µM, first compound 0.0316 µM
# [2] = second compound 0.0316 µM, first compound 0.1 µM
# [3] = second compound 0.0316 µM, first compound 0.316 µM
# [4] = second compound 0.0316 µM, first compound 1 µM
# [5] = second compound 0.1 µM, first compound 0.0316 µM
# [6] = second compound 0.1 µM, first compound 0.1 µM
# [7] = second compound 0.1 µM, first compound 0.316 µM
# [8] = second compound 0.1 µM, first compound 1 µM
# [9] = second compound 0.316 µM, first compound 0.0316 µM
# [10] = second compound 0.316 µM, first compound 0.1 µM
# [11] = second compound 0.316 µM, first compound 0.316 µM
# [12] = second compound 0.316 µM, first compound 1 µM
# [13] = second compound 1 µM, first compound 0.0316 µM
# [14] = second compound 1 µM, first compound 0.1 µM
# [15] = second compound 1 µM, first compound 0.316 µM
# [16] = second compound 1 µM, first compound 1 µM
# [17] = second compound 3.16 µM, first compound 0.0316 µM
# [18] = second compound 3.16 µM, first compound 0.1 µM
# [19] = second compound 3.16 µM, first compound 0.316 µM
# [20] = second compound 3.16 µM, first compound 1 µM
# [21] = second compound 10 µM, first compound 0.0316 µM
# [22] = second compound 10 µM, first compound 0.1 µM
# [23] = second compound 10 µM, first compound 0.316 µM
# [24] = second compound 10 µM, first compound 1 µM
# 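Note: spheroids exposed to agents for seven days before reading.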
# 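Throughout, for viability, T/C: 100% = DMSO vehicle control viability.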
smiles,measurement,setting,value
CC(=O)O[C@H]1C(=O)[C@@]2(C)[C@H]([C@H](OC(=O)c3ccccc3)[C@]3(O)C[C@H](OC(=O)[C@H](O)[C@@H](NC(=O)c4ccccc4)c4ccccc4)C(C)=C1C3(C)C)[C@]1(OC(C)=O)CO[C@@H]1C[C@@H]2O + CNC(=O)c1ccc(Nc2nc(OC3CCCC3)c3c(-c4ccc5nc(C)oc5c4)c[nH]c3n2)c(OC)c1,pIC50,second compound 0.0316 µM,> 7.50
same,pIC50,second compound 0.1 µM,> 7.50
same,pIC50,second compound 0.316 µM,> 7.50
same,pIC50,second compound 1 µM,> 7.50
same,pIC50,second compound 3.16 µM,> 7.50
same,pIC50,second compound 10 µM,> 7.50
same,"viability, T/C",[1],19.7%
same,"viability, T/C",[2],14.3%
same,"viability, T/C",[3],16.9%
same,"viability, T/C",[4],16.6%
same,"viability, T/C","second compound 0.0316 µM, first compound 3.16 µM",25.4%
same,"viability, T/C","second compound 0.0316 µM, first compound 10 µM",30.8%
same,"viability, T/C",[5],31.3%
same,"viability, T/C",[6],26.3%
same,"viability, T/C",[7],31.9%
same,"viability, T/C",[8],28%
same,"viability, T/C","second compound 0.1 µM, first compound 3.16 µM",33.3%
same,"viability, T/C","second compound 0.1 µM, first compound 10 µM",43.4%
same,"viability, T/C",[9],34.9%
same,"viability, T/C",[10],30.4%
same,"viability, T/C",[11],37%
same,"viability, T/C",[12],39.8%
same,"viability, T/C","second compound 0.316 µM, first compound 3.16 µM",34.5%
same,"viability, T/C","second compound 0.316 µM, first compound 10 µM",33%
same,"viability, T/C",[13],20.6%
same,"viability, T/C",[14],27.6%
same,"viability, T/C",[15],33.4%
same,"viability, T/C",[16],39.4%
same,"viability, T/C","second compound 1 µM, first compound 3.16 µM",35.9%
same,"viability, T/C","second compound 1 µM, first compound 10 µM",33%
same,"viability, T/C",[17],20.9%
same,"viability, T/C",[18],26.1%
same,"viability, T/C",[19],31%
same,"viability, T/C",[20],34.8%
same,"viability, T/C","second compound 3.16 µM, first compound 3.16 µM",37.6%
same,"viability, T/C","second compound 3.16 µM, first compound 10 µM",31.2%
same,"viability, T/C",[21],19.1%
same,"viability, T/C",[22],27.5%
same,"viability, T/C",[23],29%
same,"viability, T/C",[24],36.2%
same,"viability, T/C","second compound 10 µM, first compound 3.16 µM",40.2%
same,"viability, T/C","second compound 10 µM, first compound 10 µM",32.2%
CCc1c2c(nc3ccc(O)cc13)-c1cc3c(c(=O)n1C2)COC(=O)[C@]3(O)CC + CNC(=O)c1ccc(Nc2nc(OC3CCCC3)c3c(-c4ccc5nc(C)oc5c4)c[nH]c3n2)c(OC)c1,pIC50,second compound 0.0316 µM,8.42
same,pIC50,second compound 0.1 µM,> 8.50
same,pIC50,second compound 0.316 µM,> 8.50
same,pIC50,second compound 1 µM,> 8.50
same,pIC50,second compound 3.16 µM,> 8.50
same,pIC50,second compound 10 µM,> 8.50
same,"viability, T/C","second compound 0.0316 µM, first compound 0.00316 µM",53.2%
same,"viability, T/C","second compound 0.0316 µM, first compound 0.01 µM",39.4%
same,"viability, T/C",[1],32.2%
same,"viability, T/C",[2],24.1%
same,"viability, T/C",[3],15.6%
same,"viability, T/C",[4],3.04%
same,"viability, T/C","second compound 0.1 µM, first compound 0.00316 µM",48.7%
same,"viability, T/C","second compound 0.1 µM, first compound 0.01 µM",35.8%
same,"viability, T/C",[5],27.9%
same,"viability, T/C",[6],24.6%
same,"viability, T/C",[7],17.4%
same,"viability, T/C",[8],3.12%
same,"viability, T/C","second compound 0.316 µM, first compound 0.00316 µM",39.6%
same,"viability, T/C","second compound 0.316 µM, first compound 0.01 µM",30.1%
same,"viability, T/C",[9],25.1%
same,"viability, T/C",[10],21.4%
same,"viability, T/C",[11],12.9%
same,"viability, T/C",[12],3.58%
same,"viability, T/C","second compound 1 µM, first compound 0.00316 µM",24.6%
same,"viability, T/C","second compound 1 µM, first compound 0.01 µM",20.5%
same,"viability, T/C",[13],17.6%
same,"viability, T/C",[14],15.6%
same,"viability, T/C",[15],9.88%
same,"viability, T/C",[16],3.65%
same,"viability, T/C","second compound 3.16 µM, first compound 0.00316 µM",23.6%
same,"viability, T/C","second compound 3.16 µM, first compound 0.01 µM",20.8%
same,"viability, T/C",[17],15.6%
same,"viability, T/C",[18],13%
same,"viability, T/C",[19],9.01%
same,"viability, T/C",[20],2.91%
same,"viability, T/C","second compound 10 µM, first compound 0.00316 µM",23.2%
same,"viability, T/C","second compound 10 µM, first compound 0.01 µM",18.8%
same,"viability, T/C",[21],17%
same,"viability, T/C",[22],13.4%
same,"viability, T/C",[23],10%
same,"viability, T/C",[24],3.01%
